Data taken from publication PMC3871589, “Evaluation of STAT3 Signaling in ALDH+ and ALDH+/CD44+/CD24− Subpopulations of Breast Cancer Cells” (PLoS ONE, 2013).
pIC50: −log10 of the molar value.

Key:
c-SRC = c-SRC (Homo sapiens, UniProt P12931); assay: Kinase profiler assay, c-SRC; assay type: biochemical; details: 10 concentrations, 100 µM highest; Table S3
Protocol: (§1) The effects of LLL12 on twenty six purified human protein kinases were performed at the Millipore UK Limited (Dundee, UK) and Reaction Biology Corp. (Malvern, PA) using the Kinase profiler assay. Assays contained a peptide substrate, purified recombinant human protein kinases to be tested, and gamma-labeled ATP, magnesiumion. Radioactive phosphorylated product was measured and quantitated via a scintillation counter.

Yes = Yes (Homo sapiens, UniProt P07947); assay: Kinase profiler assay, Yes; assay type: biochemical; details: 10 concentrations, 100 µM highest; Table S3
Sequence of Yes (P07947 whole entry): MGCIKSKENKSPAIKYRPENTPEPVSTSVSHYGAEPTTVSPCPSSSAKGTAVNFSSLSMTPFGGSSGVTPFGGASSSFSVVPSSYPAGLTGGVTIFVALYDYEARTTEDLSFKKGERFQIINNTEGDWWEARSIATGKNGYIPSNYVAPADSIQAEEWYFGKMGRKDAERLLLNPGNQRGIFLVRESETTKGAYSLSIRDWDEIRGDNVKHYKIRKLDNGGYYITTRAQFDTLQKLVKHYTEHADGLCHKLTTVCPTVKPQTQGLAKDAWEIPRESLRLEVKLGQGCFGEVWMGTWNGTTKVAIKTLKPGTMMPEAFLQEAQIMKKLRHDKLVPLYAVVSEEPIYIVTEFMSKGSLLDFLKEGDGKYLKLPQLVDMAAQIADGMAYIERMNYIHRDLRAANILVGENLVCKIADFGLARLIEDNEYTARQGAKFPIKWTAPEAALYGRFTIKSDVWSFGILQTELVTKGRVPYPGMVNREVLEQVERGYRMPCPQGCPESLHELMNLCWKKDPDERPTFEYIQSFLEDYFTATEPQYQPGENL
Protocol: as §1

c-Raf = c-Raf (Homo sapiens, UniProt P04049); assay: Kinase profiler assay, c-Raf; assay type: biochemical; details: bound stated jointly for the other protein kinases; Table S3
Sequence of c-Raf (P04049 whole entry): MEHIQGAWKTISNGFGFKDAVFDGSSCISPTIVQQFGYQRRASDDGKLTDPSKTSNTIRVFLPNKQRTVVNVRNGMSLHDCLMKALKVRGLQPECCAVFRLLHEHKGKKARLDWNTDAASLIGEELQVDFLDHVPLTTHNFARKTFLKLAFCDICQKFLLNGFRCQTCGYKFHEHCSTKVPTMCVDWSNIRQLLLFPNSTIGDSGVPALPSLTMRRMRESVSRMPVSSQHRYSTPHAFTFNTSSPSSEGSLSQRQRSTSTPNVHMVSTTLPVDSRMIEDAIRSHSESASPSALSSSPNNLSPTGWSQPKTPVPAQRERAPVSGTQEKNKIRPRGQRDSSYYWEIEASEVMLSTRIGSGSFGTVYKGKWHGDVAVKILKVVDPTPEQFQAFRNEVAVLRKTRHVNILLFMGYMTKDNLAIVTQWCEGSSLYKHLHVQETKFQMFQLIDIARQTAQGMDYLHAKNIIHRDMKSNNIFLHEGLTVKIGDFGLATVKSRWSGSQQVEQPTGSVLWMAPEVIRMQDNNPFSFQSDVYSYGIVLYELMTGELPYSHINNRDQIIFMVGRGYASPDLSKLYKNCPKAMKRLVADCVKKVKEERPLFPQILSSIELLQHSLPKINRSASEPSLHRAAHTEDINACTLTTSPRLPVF
Protocol: as §1

EGFR = EGFR (Homo sapiens, UniProt P00533); assay: Kinase profiler assay, EGFR; assay type: biochemical; details: bound stated jointly for the other protein kinases; Table S3
Sequence of EGFR (P00533 25-1210): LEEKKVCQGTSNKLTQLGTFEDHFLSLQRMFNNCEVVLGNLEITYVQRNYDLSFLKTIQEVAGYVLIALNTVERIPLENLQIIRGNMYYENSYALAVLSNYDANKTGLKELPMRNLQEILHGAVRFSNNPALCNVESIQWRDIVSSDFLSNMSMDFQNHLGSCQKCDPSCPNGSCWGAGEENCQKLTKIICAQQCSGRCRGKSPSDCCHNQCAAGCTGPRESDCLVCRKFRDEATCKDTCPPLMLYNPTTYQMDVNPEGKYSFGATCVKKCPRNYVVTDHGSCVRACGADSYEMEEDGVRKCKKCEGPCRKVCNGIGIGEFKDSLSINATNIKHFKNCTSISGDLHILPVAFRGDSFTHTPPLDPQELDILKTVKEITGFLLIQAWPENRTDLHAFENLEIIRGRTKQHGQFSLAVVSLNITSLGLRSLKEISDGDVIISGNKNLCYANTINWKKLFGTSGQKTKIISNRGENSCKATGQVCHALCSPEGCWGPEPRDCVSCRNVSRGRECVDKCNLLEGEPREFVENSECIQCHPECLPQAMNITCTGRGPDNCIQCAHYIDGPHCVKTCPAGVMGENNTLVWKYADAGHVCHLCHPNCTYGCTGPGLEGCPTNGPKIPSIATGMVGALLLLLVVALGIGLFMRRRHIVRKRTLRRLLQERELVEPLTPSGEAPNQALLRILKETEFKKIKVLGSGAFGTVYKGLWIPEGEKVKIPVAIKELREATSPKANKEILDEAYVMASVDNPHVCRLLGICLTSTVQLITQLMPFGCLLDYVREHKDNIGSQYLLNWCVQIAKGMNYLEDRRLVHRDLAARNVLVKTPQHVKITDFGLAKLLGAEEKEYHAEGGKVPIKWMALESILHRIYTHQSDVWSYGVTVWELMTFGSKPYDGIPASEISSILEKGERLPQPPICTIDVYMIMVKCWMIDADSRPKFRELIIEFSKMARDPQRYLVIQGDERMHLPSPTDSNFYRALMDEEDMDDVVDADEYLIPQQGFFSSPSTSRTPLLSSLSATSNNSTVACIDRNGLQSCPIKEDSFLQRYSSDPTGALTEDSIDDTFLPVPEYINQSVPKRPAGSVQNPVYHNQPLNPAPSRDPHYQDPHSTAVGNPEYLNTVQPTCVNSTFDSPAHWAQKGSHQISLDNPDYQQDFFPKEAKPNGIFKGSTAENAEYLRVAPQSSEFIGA
Protocol: as §1

ErB2/HER2 = ErB2/HER2 (Homo sapiens, UniProt P04626); details: read-out: IC50 on ErB2/HER2; bound stated jointly for the other protein kinases; Table S3
Sequence of ErB2/HER2 (P04626 23-1255): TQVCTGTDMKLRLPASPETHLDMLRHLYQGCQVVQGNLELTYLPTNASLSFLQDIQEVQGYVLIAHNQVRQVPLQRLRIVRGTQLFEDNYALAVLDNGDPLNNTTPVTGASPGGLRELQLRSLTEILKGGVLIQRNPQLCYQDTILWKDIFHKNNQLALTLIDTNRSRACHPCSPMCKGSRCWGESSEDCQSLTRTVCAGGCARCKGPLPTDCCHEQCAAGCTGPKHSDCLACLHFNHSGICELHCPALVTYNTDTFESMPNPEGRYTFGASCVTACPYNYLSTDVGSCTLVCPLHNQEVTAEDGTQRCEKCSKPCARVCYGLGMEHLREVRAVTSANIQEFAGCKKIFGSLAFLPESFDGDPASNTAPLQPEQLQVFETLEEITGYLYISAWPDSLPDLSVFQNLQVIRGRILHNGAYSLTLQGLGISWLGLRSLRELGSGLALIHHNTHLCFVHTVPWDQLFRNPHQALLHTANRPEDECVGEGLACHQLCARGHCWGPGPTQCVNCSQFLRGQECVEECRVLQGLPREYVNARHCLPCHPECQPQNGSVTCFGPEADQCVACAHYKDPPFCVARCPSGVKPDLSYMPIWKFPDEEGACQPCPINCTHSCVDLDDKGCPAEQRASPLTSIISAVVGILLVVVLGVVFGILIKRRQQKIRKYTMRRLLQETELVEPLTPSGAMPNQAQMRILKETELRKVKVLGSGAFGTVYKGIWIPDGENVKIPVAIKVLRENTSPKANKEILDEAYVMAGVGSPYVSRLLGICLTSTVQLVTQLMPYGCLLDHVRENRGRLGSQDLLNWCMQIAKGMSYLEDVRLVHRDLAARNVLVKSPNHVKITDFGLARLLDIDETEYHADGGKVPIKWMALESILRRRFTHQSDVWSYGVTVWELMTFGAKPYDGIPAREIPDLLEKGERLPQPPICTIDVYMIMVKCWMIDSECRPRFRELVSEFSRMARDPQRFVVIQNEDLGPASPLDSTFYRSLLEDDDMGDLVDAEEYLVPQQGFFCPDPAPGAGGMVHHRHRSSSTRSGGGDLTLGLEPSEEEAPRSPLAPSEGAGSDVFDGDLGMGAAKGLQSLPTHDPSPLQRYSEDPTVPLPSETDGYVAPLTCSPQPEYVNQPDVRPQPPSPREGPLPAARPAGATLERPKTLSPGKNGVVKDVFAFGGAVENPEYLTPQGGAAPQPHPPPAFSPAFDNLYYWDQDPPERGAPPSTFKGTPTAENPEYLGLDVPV
Protocol: as §1

STAT3 target genes = assay: RT-PCR of STAT3 downstream target genes in ALDH+ cells; assay type: cell-based, human; details: 5 µM, 24 h
Protocol: (§2) The ALDH^+ and ALDH^+/CD44^+/CD24^− subpopulations of breast cancer cells were treated with LLL12 (5 µM) or DMSO for 24 h. RNA from the cells was then collected using RNeasy Kits (Qiagen). cDNA was constructed from a 500 ng sample of RNA using Omniscript RT (Qiagen). Primer sequences and source information can be found in Table S1. The intensity of bands was quantified and normalized to GAPDH.

[1] = system: ALDH+ subpopulation in MDA-MB-231, SUM159, and SK-BR3 cancer cells; assay: ALDEFLUOR assay, percentage of ALDH+ subpopulation; assay type: cell-based, human; details: un-separated MDA-MB-231, SUM159, SK-BR3; LLL12 5 µmol/L or Stattic 10 µM, 24 hours
Protocol: The ALDEFLUOR kit (StemCell Technologies) was used to isolate the population with high ALDH enzymatic activity as previously described. Briefly, cells were trypsinized to single cells using 0.05% trypsin and subsequently suspended in ALDEFLUOR assay buffer containing ALDH substrate (BAAA, 1 µmol/l per 1×10^6 cells) and then incubated for 40 minutes at 37°C. For each sample, an aliquot of cells was stained under identical conditions with 15 mmol/L diethylaminobenzaldehyde (DEAB), a specific ALDH inhibitor, as an ALDH^− control. Anti-human PE-CD24 and PE-Cy5-CD44 antibody (BioLegend) were used for CD44/CD24 identification and to separate ALDH^+/CD44^+/CD24^− and ALDH^−/CD44^+/CD24^+ cells when combined with ALDH staining. Analysis was performed using a FACStarPLUS (Becton Dickinion) flow cytometer. To assess the effect of STAT3 inhibitors on the subpopulation of ALDH^+ cells, un-separated breast cancer cells were treated with 5 µmol/L of LLL12 or 10 µmol/L Stattic for 24 hours prior to performing the ALDEFLUOR assay.

[2] = system: ALDH+ subpopulations of SK-BR-3, MDA-MB-231, and SUM159; assay: Tumorsphere formation, ALDH+ subpopulations; assay type: cell-based, human; details: 2.5–10 µmol/L, 10 to 15 days
Protocol: ALDH^+ and ALDH^+/CD44^+/CD24^− cells were plated as single cells in ultra-low attachment six-well plates at a density of 250, 500, 1000 or 50,000 viable cells/well as previously described. On the second day after seeding, the ALDH^+ cancer cells were treated with 2.5–10 µmol/L of LLL12 or Stattic. For tumorsphere forming capacity assay, ALDH^+ or ALDH^− cells were plated as single cells in ultra-low attachment six-well plates at a density of 250, 500 or 1000 viable cells/well. Tumorsphere growth was observed under a microscope 10 to 15 days later.

[3] = system: MDA-MB-231 ALDH+ breast cancer stem-like cells; assay: Mouse xenograft of MDA-MB-231 ALDH+ breast cancer stem-like cells; assay type: in vivo, NOD/SCID mice; details: 5 mg/kg IP daily
Protocol: All animal studies were conducted in accordance with the principles and standard procedures approved by IACUC at the Research Institute at Nationwide Children’s Hospital and the University Committee on the Use and Care of Animals at the University of Michigan. ALDH^+ subpopulations of MDA-MB-231 and ALDH^+/CD44^+/CD24^− subpopulations of SUM-159 breast cancer cells (1×10^5) respectively were injected subcutaneous (s.c.) into the flank area of female Non-obese diabetic (NOD)/Severe combined immunodeficiency (SCID) mice which were purchased from Jackson Laboratory.

[4] = system: tumor tissues from breast cancer stem-like cells; assay: Immunohistochemistry of tumor tissues (Ki-67, cleaved caspase-3); assay type: in vivo, NOD/SCID mice; details: 5 mg/kg IP daily
Protocol: Human breast cancer tissue microarray slides, comprising 95 breast cancer cases, were obtained from the Biochain Institute, Inc.. These slides were baked at 60°C for 1 hour. After deparaffinization, the slides were boiled in a pressure cooker filled with 10 mM Sodium Citrate (PH6.0), and then subjected to immunohistochemistry or immunofluorescence staining. P-STAT3 (Y705) (1∶25; Signaling Technology, Beverly, MA), ALDH1 (1∶100; BD Pharmingen, San Diego, CA), Ki-67 (1∶100; Santa Cruz Biotechnology, Santa Cruz, CA) or cleaved Caspase-3 (1∶100; Signaling Technology, Beverly, MA) antibody were used. For immunofluorescence, the slides were incubated with both primary antibodies and double-stained with Alexa Fluor® 488 conjugated anti-rabbit IgG and Alexa Fluor® 594 conjugated anti-mouse IgG (Cell Signaling Technology, Beverly, MA) overnight at 4°C. The nuclei were subsequently stained with DAPI. For immunohistochemistry, endogenous peroxidase activity was quenched by incubation in 3% hydrogen peroxide for 10 min. After blocking, the slides were incubated with primary antibody overnight at 4°C. The Histostain-Plus Kits (Invitrogen, Carlsbad, CA) were used per the manufacturer’s protocol. […] The staining intensity was scored under microscope as described elsewhere. Significance of correlation between P-STAT3 and ALDH1 was determined using two-sided Pearson Chi-square (χ^2) test.

STAT3-regulated genes = assay: RT-PCR of STAT3-regulated genes in ALDH+/CD44+/CD24− cells; assay type: cell-based, human; details: 5 µM, 24 h
Protocol: as §2

Sequence of c-SRC (P12931 whole entry): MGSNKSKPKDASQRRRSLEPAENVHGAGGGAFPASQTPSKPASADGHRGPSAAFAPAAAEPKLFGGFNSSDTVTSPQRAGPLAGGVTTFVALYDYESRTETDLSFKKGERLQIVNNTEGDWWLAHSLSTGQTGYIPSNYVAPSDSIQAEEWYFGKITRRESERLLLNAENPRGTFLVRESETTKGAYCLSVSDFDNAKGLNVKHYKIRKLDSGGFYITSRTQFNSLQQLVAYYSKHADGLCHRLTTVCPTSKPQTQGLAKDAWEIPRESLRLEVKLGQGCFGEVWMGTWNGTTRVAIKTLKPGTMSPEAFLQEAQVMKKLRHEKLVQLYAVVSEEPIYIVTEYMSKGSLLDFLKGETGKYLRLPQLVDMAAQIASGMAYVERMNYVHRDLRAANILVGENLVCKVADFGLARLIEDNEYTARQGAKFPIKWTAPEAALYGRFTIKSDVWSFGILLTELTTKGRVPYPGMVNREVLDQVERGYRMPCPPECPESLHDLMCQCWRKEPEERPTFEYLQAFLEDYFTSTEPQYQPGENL

SMILES: NS(=O)(=O)c1cccc2c1C(=O)c1cccc(O)c1C2=O [LLL12]
- pIC50 (c-SRC): < 4.00
- pIC50 (Yes): < 4.00
- pIC50 (c-Raf): ≤ 4.11
- pIC50 (EGFR): ≤ 4.11
- pIC50 (ErB2/HER2): ≤ 4.11
- expression of STAT3 target genes Cyclin D1, survivin, Bcl-2, Bcl-XL, MMP-2, and MMP-9 (STAT3 target genes; ALDH+ breast cancer cells): down-regulated
- Twist1, Notch-1, and Notch-3 expression (STAT3 target genes; ALDH+ breast cancer stem-like cells): inhibited
- ALDH+ subpopulation (percentage) [1]: decrease
- tumorsphere formation [2]: suppress
- tumor volume ([3]; 15 days, P<0.05 vs vehicle): significantly suppressed
- tumor weight ([3]; 15 days, P<0.05 vs vehicle): significantly suppressed
- P-STAT3 in tumor tissue ([3]; Western blot of tumors): decreased
- cleaved caspase-3 in tumor tissue ([3]; Western blot of tumors): increased
- number of Ki-67 positive cells [4]: decreased
- number of cleaved caspase-3 positive cells [4]: increased
- expression of Cyclin D1, survivin, Bcl-2, Bcl-XL and Notch1 (STAT3-regulated genes): down-regulated
